Measurements taken from the supplement of paper PMC11451515.

Test system: SEM cells
Assay: cell viability relative to DMSO control; higher = less cytotoxic
Conditions: 48 h
Outline: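 NOMO1 or SEM (500 cells/well) or P12-Ichikawa (1000 cells/well) leukemia cells were adapted for at least four passages in each medium. They were seeded in 1536-well plates (5 μl) and pin-dosed with library compounds in DMSO over an 11-point threefold series, 47 μM to 0.79 nM. CellTiter-Glo One luminescence was read after 48 h at 37°C. Viability is the per-plate percentage relative to DMSO wells, with cell-free wells as background.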

[1] = HPLM + 10% dialyzed FBS, 0.000781 µM
[2] = HPLM + 10% dialyzed FBS, 0.00234 µM
[3] = HPLM + 10% dialyzed FBS, 0.00702 µM
[4] = HPLM + 10% dialyzed FBS, 0.0211 µM
[5] = HPLM + 10% dialyzed FBS, 0.0632 µM
[6] = HPLM + 10% dialyzed FBS, 0.19 µM
[7] = HPLM + 10% dialyzed FBS, 0.569 µM
[8] = HPLM + 10% dialyzed FBS, 1.71 µM
[9] = HPLM + 10% dialyzed FBS, 5.12 µM
[10] = HPLM + 10% dialyzed FBS, 15.4 µM
[11] = HPLM + 10% dialyzed FBS, 46.1 µM
[12] = RPMI 5 mM glucose + 10% FBS, 0.000781 µM
[13] = RPMI 5 mM glucose + 10% FBS, 0.00234 µM
[14] = RPMI 5 mM glucose + 10% FBS, 0.00702 µM
[15] = RPMI 5 mM glucose + 10% FBS, 0.0211 µM
[16] = RPMI 5 mM glucose + 10% FBS, 0.0632 µM
[17] = RPMI 5 mM glucose + 10% FBS, 0.19 µM
[18] = RPMI 5 mM glucose + 10% FBS, 0.569 µM
[19] = RPMI 5 mM glucose + 10% FBS, 1.71 µM
[20] = RPMI 5 mM glucose + 10% FBS, 5.12 µM
[21] = RPMI 5 mM glucose + 10% FBS, 15.4 µM
[22] = RPMI 5 mM glucose + 10% FBS, 46.1 µM
[23] = RPMI 5 mM glucose + 10% dialyzed FBS, 0.000781 µM
[24] = RPMI 5 mM glucose + 10% dialyzed FBS, 0.00234 µM
[25] = RPMI 5 mM glucose + 10% dialyzed FBS, 0.00702 µM
[26] = RPMI 5 mM glucose + 10% dialyzed FBS, 0.0211 µM
[27] = RPMI 5 mM glucose + 10% dialyzed FBS, 0.0632 µM
[28] = RPMI 5 mM glucose + 10% dialyzed FBS, 0.19 µM
[29] = RPMI 5 mM glucose + 10% dialyzed FBS, 0.569 µM
[30] = RPMI 5 mM glucose + 10% dialyzed FBS, 1.71 µM
[31] = RPMI 5 mM glucose + 10% dialyzed FBS, 5.12 µM
[32] = RPMI 5 mM glucose + 10% dialyzed FBS, 15.4 µM
[33] = RPMI 5 mM glucose + 10% dialyzed FBS, 46.1 µM

| Structure (SMILES) | cell viability [1] [%] | cell viability [2] [%] | cell viability [3] [%] | cell viability [4] [%] | cell viability [5] [%] | cell viability [6] [%] | cell viability [7] [%] | cell viability [8] [%] | cell viability [9] [%] | cell viability [10] [%] | cell viability [11] [%] | cell viability [12] [%] | cell viability [13] [%] | cell viability [14] [%] | cell viability [15] [%] | cell viability [16] [%] | cell viability [17] [%] | cell viability [18] [%] | cell viability [19] [%] | cell viability [20] [%] | cell viability [21] [%] | cell viability [22] [%] | cell viability [23] [%] | cell viability [24] [%] | cell viability [25] [%] | cell viability [26] [%] | cell viability [27] [%] | cell viability [28] [%] | cell viability [29] [%] | cell viability [30] [%] | cell viability [31] [%] | cell viability [32] [%] | cell viability [33] [%] |
| --- | --- | --- | --- | --- | --- | --- | --- | --- | --- | --- | --- | --- | --- | --- | --- | --- | --- | --- | --- | --- | --- | --- | --- | --- | --- | --- | --- | --- | --- | --- | --- | --- | --- |
| CC(C)C[C@@H](C=O)NC(=O)[C@H](CC(C)C)NC(=O)[C@H](CC(C)C)NC(=O)OCc1ccccc1 | 108 | 115 | 126 | 122 | 148 | 139 | 81.8 | 9.69 | 9.22 | 8.52 | 8.11 | 111 | 131 | 124 | 143 | 124 | 127 | 10.8 | 9.94 | 10 | 9.17 | 8.59 | – | – | – | – | – | – | – | – | – | – | – |
| COc1ccc(C2CNC(=O)C2)cc1OC1CCCC1 (stereo not given) | 80.8 | 93.4 | 91.4 | 89.7 | 106 | 97.7 | 107 | 102 | 108 | 97 | 101 | 82.9 | 88.6 | 89.9 | 81.7 | 100 | 95.3 | 102 | 110 | 97.3 | 107 | 90.2 | 85.9 | 89.7 | 101 | 89.8 | 95 | 99.3 | 94.6 | 99.9 | 101 | 102 | 103 |
| CCOC(=O)\C1=C(/C)N\C2=C(C1C3=CC=C(C=C3)C4=CC=CC=C4)\C(=O)CC(C)(C)C2 (stereo not given) | 107 | 104 | 101 | 105 | 104 | 113 | 103 | 102 | 105 | 92 | 60.4 | 101 | 122 | 134 | 114 | 144 | 108 | 110 | 112 | 108 | 96.1 | 58.4 | 89.4 | 116 | 111 | 98.3 | 104 | 89.4 | 97.5 | 103 | 89.8 | 81.1 | 57.6 |
| O=C(Nc1ccc(F)c(C(F)(F)F)c1)Nc1nnc(-c2ccncc2)s1 | – | – | – | – | – | – | – | – | – | – | – | 99.6 | 112 | 104 | 103 | 107 | 105 | 88.9 | 104 | 105 | 106 | 92.8 | 121 | 114 | 124 | 113 | 115 | 117 | 121 | 104 | 113 | 125 | 109 |
| CC(N)C12CC3CC(CC(C3)C1)C2 (stereo not given) | 89.3 | 104 | 96.8 | 110 | 98.4 | 107 | 118 | 108 | 85.3 | 96.1 | 108 | 102 | 100 | 120 | 122 | 113 | 117 | 118 | 123 | 94.5 | 125 | 131 | 106 | 91.5 | 126 | 98.2 | 115 | 115 | 117 | 118 | 88.1 | 107 | 110 |
| Nc1nc(N)c2nc(CNc3ccc(C(=O)NC(CCC(=O)O)C(=O)O)cc3)cnc2n1 (stereo not given) | 104 | 114 | 110 | 127 | 57.2 | 36.6 | 39.5 | 45.6 | 48.6 | 41.8 | 46.5 | 111 | 115 | 120 | 110 | 92.2 | 56.5 | 83 | 76.4 | 99.7 | 86.5 | 87.5 | 96.2 | 103 | 104 | 104 | 30.5 | 23.7 | 23.1 | 23.1 | 28.8 | 29.6 | 23.8 |
| CNC[C@H](O)c1ccc(O)c(O)c1 | 90.5 | 85.8 | 71.9 | 73.9 | 77.3 | 17.6 | 63 | 68.7 | 61.3 | 70.5 | 53.1 | 104 | 97.3 | 85.6 | 73.1 | 102 | 30.8 | 87.9 | 83.7 | 79.8 | 90.7 | 82.4 | 104 | 111 | 85.8 | 83.3 | 93.3 | 28.2 | 86.5 | 95.3 | 89.5 | 82.1 | 68.9 |
| S=P(N1CC1)(N1CC1)N1CC1 | 102 | 106 | 110 | 96.7 | 104 | 107 | 103 | 98.5 | 85.1 | 93.3 | 39 | – | – | – | – | – | – | – | – | – | – | – | 99.6 | 108 | 106 | 105 | 105 | 107 | 93.6 | 90.4 | 95.1 | 78.5 | 41.5 |
| Cc1cc(C(C)(C)C)c(O)c(C)c1CC1=NCCN1 | 62.6 | 80.2 | 75.4 | 83 | 76.8 | 83.3 | 86.9 | 91.9 | 66.6 | 60.3 | 62.5 | 83.8 | 82.1 | 91.1 | 83.6 | 86.7 | 100 | 102 | 101 | 53.1 | 51.8 | 59.3 | 90.3 | 77.7 | 82.2 | 89.3 | 93.3 | 95.4 | 87.5 | 105 | 77.2 | 57.9 | 55.9 |
| OC[C@H]1OCC(O1)[N@@]2C=CC(N)=NC2=O (stereo not given in full) | 108 | 81.3 | 90.7 | 106 | 115 | 103 | 107 | 99.3 | 96.3 | 102 | 96.6 | 73.1 | 62.4 | 77.8 | 77.5 | 78 | 84.2 | 80 | 64.4 | 70.7 | 63.8 | 56.3 | 96.7 | 95.8 | 96.3 | 106 | 113 | 110 | 114 | 103 | 106 | 101 | 88.8 |
| C#C[C@]1(O)CC[C@H]2[C@@H]3CCc4cc(O)ccc4[C@H]3CC[C@@]21C | 86.5 | 103 | 99.6 | 96.6 | 92.2 | 99.4 | 103 | 98.9 | 105 | 68 | 47.1 | 92.3 | 116 | 115 | 113 | 105 | 107 | 111 | 104 | 99.8 | 62.9 | 48.7 | 93.7 | 111 | 108 | 108 | 108 | 98.2 | 95.1 | 114 | 100 | 68.8 | 57.6 |
| OC1CCC(Nc2ncc3nc(Nc4c(F)cc(F)cc4F)n([C@@H]4CCOC4)c3n2)CC1 (stereo not given in full) | 96.4 | 93.4 | 99.2 | 110 | 118 | 108 | 110 | 107 | 125 | 80.9 | 91.4 | 96.5 | 92.9 | 103 | 95.7 | 105 | 101 | 97.4 | 105 | 95.4 | 40.9 | 99.4 | 90.4 | 111 | 114 | 96.1 | 112 | 116 | 118 | 116 | 100 | 84.3 | 87.3 |
| O=C(O)c1ccc2c(c1)nc(Nc1cccc(Cl)c1)c1ccncc12 | 103 | 114 | 106 | 105 | 110 | 101 | 117 | 102 | 77.6 | 35.9 | 48.8 | 107 | 108 | 98.5 | 103 | 111 | 127 | 104 | 98.1 | 70.7 | 32.1 | 46 | 103 | 103 | 105 | 99.5 | 107 | 125 | 114 | 102 | 62.2 | 30.4 | 38.5 |
| COc1ccc(-c2ccc3c(N4CCOC[C@@H]4C)nc(N4CCOC[C@@H]4C)nc3n2)cc1CO | 101 | 58.2 | 96.6 | 92.1 | 87.3 | 62.2 | 60.3 | 53.4 | 50.9 | 33 | 4.42 | 110 | 52 | 118 | 101 | 89.7 | 51 | 67.5 | 55.8 | 36.5 | 12.6 | 4.05 | 105 | 53 | 110 | 88.9 | 82.2 | 64.7 | 67.4 | 56.2 | 45.7 | 34.3 | 3.94 |
| C[S+]([O-])(=O)C1=CC=C(C=C1)C/2=C(/C(=O)OC2)C3=CC=CC=C3 | 96 | 102 | 105 | 107 | 103 | 115 | 104 | 115 | 115 | 79.7 | 94.1 | 100 | 107 | 104 | 119 | 114 | 122 | 104 | 95.1 | 102 | 66.9 | 11.4 | 89.4 | 105 | 115 | 111 | 112 | 120 | 119 | 117 | 124 | 75 | 71.6 |
| COc1cc2nccc(Oc3ccc(NC(=O)NC4CC4)c(Cl)c3)c2cc1C(N)=O | 116 | 117 | 126 | 118 | 108 | 108 | 88.7 | 79.2 | 69.1 | 56.2 | 51.4 | 93.5 | 117 | 105 | 98.4 | 97.1 | 98.8 | 72.2 | 80.4 | 63.2 | 44.2 | 32.1 | 119 | 110 | 122 | 114 | 104 | 90.8 | 81.4 | 75 | 59.3 | 53.7 | 47.9 |
